The text below walks through data of US20230340011A1 (Asteroid Therapeutics, priority 2022, published 2023).

The structures appear in SMILES notation. Bounds are passed on as bounds.

In this test the target is LXRβ (Homo sapiens (Human), UniProt P55055). Put plainly: In vitro assay LXRβ: PathHunter NHR CHO cells, LXRβ / Steroid Receptor Co-activator Peptide enzyme fragment complementation. The test is classed as cell-based. Particulars: PathHunter NHR CHO cells, full-length human LXRβ and SRCP, chemiluminescent signal; read-out: LXRβ PPI. As to the method:
PathHunter NHR CHO cells stably transfected with tagged full-length human LXRβ and a nuclear fusion protein containing Steroid Receptor Co-activator Peptide (SRCP). The full-length human LXRβ was tagged with the ProLink™ component of the DiscoverX Enzyme Fragment Complementation (EFC) system and the SRCP domain is fused to the enzyme acceptor component (EA) expressed in the nucleus. Cells were seeded in a total volume of 20 μL into white walled, 384-well microplates and incubated at 37° C. overnight prior to testing. Assay media contained charcoal-dextran filtered serum to reduce the level of hormones present. Final assay vehicle concentration was 1%. […] Microplates were read following signal generation with a PerkinElmer Envision instrument for chemiluminescent signal detection.

LXRβ, sequence (P55055 whole entry, the tested form may be a part): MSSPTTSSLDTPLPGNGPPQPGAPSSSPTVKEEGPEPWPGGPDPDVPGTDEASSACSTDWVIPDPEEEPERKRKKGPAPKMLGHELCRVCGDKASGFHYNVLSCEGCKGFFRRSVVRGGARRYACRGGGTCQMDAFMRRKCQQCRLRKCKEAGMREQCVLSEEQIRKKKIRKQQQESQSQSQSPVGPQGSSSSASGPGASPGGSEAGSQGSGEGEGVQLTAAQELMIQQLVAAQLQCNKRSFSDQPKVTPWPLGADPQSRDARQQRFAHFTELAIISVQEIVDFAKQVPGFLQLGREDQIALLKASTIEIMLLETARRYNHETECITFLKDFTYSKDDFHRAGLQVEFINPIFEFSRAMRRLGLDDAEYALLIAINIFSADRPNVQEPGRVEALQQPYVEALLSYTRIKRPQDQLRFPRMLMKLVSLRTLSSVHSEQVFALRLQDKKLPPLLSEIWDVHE

For `CC(NC(=O)C(C)(C)O)C1CCN(C(=O)CC[C@@H](C)[C@H]2CC[C@H]3[C@@H]4CC=C5C[C@@H](O)CC[C@]5(C)[C@H]4CC[C@]23C)CC1` (stereo partly drawn) [Example 227, 2-hydroxy-N-(1-(1-((R)-4-((3S,8S,9S,10R,13R,14S,17R)-3-hydroxy-10,13-dimethyl-2,3,4,7,8,9,10,11,12,13,14,15,16,17-tetradecahydro-1H-cyclopenta[a]phenanthren-17-yl)pentanoyl)piperidin-4-yl)ethyl)-2-methylpropanamide], the EC50 was greater than 10 µM.

Consider `CC(NS(C)(=O)=O)C1CCN(C(=O)CC[C@@H](C)[C@H]2CC[C@H]3[C@@H]4CC=C5C[C@@H](O)CC[C@]5(C)[C@H]4CC[C@]23C)CC1` (stereo partly drawn) [Example 229, N-(1-(1-((R)-4-((3S,8S,9S,10R,13R,14S,17R)-3-hydroxy-10,13-dimethyl-2,3,4,7,8,9,10,11,12,13,14,15,16,17-tetradecahydro-1H-cyclopenta[a]phenanthren-17-yl)pentanoyl)piperidin-4-yl)ethyl)methanesulfonamide], for which the EC50 was greater than 10 µM.

Consider `C[C@H](CCC(=O)N1CCC(CN(C)S(C)(=O)=O)CC1)[C@H]1CC[C@H]2[C@@H]3CC=C4C[C@@H](O)CC[C@]4(C)[C@H]3CC[C@]12C` [Example 230, N-((1-((R)-4-((3S,8S,9S,10R,13R,14S,17R)-3-hydroxy-10,13-dimethyl-2,3,4,7,8,9,10,11,12,13,14,15,16,17-tetradecahydro-1H-cyclopenta[a]phenanthren-17-yl)pentanoyl)piperidin-4-yl)methyl)-N-methylmethanesulfonamide], for which the EC50 was greater than 10 µM.

Take `C[C@H](CCC(=O)N1CCC(CNS(=O)(=O)C(F)(F)F)CC1)[C@H]1CC[C@H]2[C@@H]3CC=C4C[C@@H](O)CC[C@]4(C)[C@H]3CC[C@]12C` [Example 231, 1,1,1-trifluoro-N-((1-((R)-4-((3S,8S,9S,10R,13R,14S,17R)-3-hydroxy-10,13-dimethyl-2,3,4,7,8,9,10,11,12,13,14,15,16,17-tetradecahydro-1H-cyclopenta[a]phenanthren-17-yl)pentanoyl)piperidin-4-yl)methyl)methanesulfonamide]: the EC50 was greater than 10 µM.

For `C[C@H](CCC(=O)N1CCC(CNS(C)(=O)=O)CC1)[C@H]1CC[C@H]2[C@@H]3CC=C4C[C@@H](O)CC[C@]4(C)[C@H]3CC[C@]12C` [Example 232, N-((1-((R)-4-((3S,8S,9S,10R,13R,14S,17R)-3-hydroxy-10,13-dimethyl-2,3,4,7,8,9,10,11,12,13,14,15,16,17-tetradecahydro-1H-cyclopenta[a]phenanthren-17-yl)pentanoyl)piperidin-4-yl)methyl)methanesulfonamide], the EC50 is greater than 10 µM.

In the case of `COC(=O)N1CCN(C(=O)OC[C@@H](C)[C@H]2CC[C@H]3[C@@H]4CC=C5C[C@@H](O)CC[C@]5(C)[C@H]4CC[C@]23C)CC1` [Example 238, 1-(2S)-2-[(1R,3aS,3bS,7S,9aR,9bS,11aS)-7-hydroxy-9a,11a-dimethyl-1H,2H,3H,3aH,3bH,4H,6H,7H,8H,9H,9aH,9bH,10H,11H,11aH-cyclopenta[a]phenanthren-1-yl]propyl 4-methyl piperazine-1,4-dicarboxylate], the EC50 was greater than 10 µM.

For the compound `C[C@H](CCC(=O)N1CCC(OC(F)(F)F)CC1)[C@H]1CC[C@H]2[C@@H]3CC=C4C[C@@H](O)CC[C@]4(C)[C@H]3CC[C@]12C` [Example 251, (4R)-4-[(1R,3aS,3bS,7S,9aR,9bS,11aR)-7-hydroxy-9a,11a-dimethyl-1H,2H,3H,3aH,3bH,4H,6H,7H,8H,9H,9aH,9bH,10H,11H,11aH-cyclopenta[a]phenanthren-1-yl]-1-[4-(trifluoromethoxy)piperidin-1-yl]pentan-1-one], the EC50 is greater than 10 µM.

For the compound `C[C@H](CCC(=O)N1CCC(OC(F)F)CC1)[C@H]1CC[C@H]2[C@@H]3CC=C4C[C@@H](O)CC[C@]4(C)[C@H]3CC[C@]12C` [Example 252, (R)-1-(4-(difluoromethoxy)piperidin-1-yl)-4-((3S,8S,9S,10R,13R,14S,17R)-3-hydroxy-10,13-dimethyl-2,3,4,7,8,9,10,11,12,13,14,15,16,17-tetradecahydro-1H-cyclopenta[a]phenanthren-17-yl)pentan-1-one], the EC50 is greater than 10 µM.
